Measured values reported in US10131652B2, “Pyrimidinyloxy benzene derivatives as herbicides” (E. I. DU PONT DE NEMOURS AND COMPANY, priority 2014, dated 2018).

Key:
Type in all cases: in vivo
[1] = system: johnsongrass (Sorghum halepense); assay: Test D pre-/postemergence plant response
Procedure, shortened: (§1)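 Visual injury scoring (0–100) at 13 to 15 days in greenhouse. Preemergence sprays on seeded loam/sand; postemergence sprays on 1–4 leaf plants.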

[2] = system: large (Lg) crabgrass (Digitaria sanguinalis); assay: Test D pre-/postemergence plant response
Procedure, shortened: as §1

[3] = system: galium (catchweed bedstraw, Galium aparine); assay: Test D pre-/postemergence plant response
Procedure, shortened: as §1

[4] = system: blackgrass (Alopecurus myosuroides); assay: Test D pre-/postemergence plant response
Procedure, shortened: as §1

[5] = system: lambsquarters (Chenopodium album); assay: Test D pre-/postemergence plant response
Procedure, shortened: as §1

[6] = system: velvetleaf (Abutilon theophrasti); assay: Test D pre-/postemergence plant response
Procedure, shortened: as §1

[7] = system: winter wheat (Triticum aestivum); assay: Test D pre-/postemergence plant response
Procedure, shortened: as §1

[8] = system: small-flower umbrella sedge (Cyperus difformis); assay: Test C flooded paddy test plant response; conditions: Flood, 250 g ai/ha; scale of 0 to 100 where 0 is no effect and 100 is complete control; 13 to 15 days
Procedure, shortened: (§2)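 Scale 0 (no effect) to 100 (complete control), assigned visually versus controls after 13–15 d greenhouse. Application: directly to paddy water, 3 cm flood depth kept constant, 2-leaf stage.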

[9] = system: barnyardgrass (Echinochloa crus-galli); assay: Test C flooded paddy test plant response; conditions: Flood, 250 g ai/ha; scale of 0 to 100 where 0 is no effect and 100 is complete control; 13 to 15 days
Procedure, shortened: as §2

[10] = system: ducksalad (Heteranthera limosa); assay: Test C flooded paddy test plant response; conditions: Flood, 250 g ai/ha; scale of 0 to 100 where 0 is no effect and 100 is complete control; 13 to 15 days
Procedure, shortened: as §2

rice (Oryza sativa) = assay: Test C flooded paddy test plant response; conditions: Flood, 250 g ai/ha; scale of 0 to 100 where 0 is no effect and 100 is complete control; 13 to 15 days
Procedure, shortened: as §2

[11] = system: barnyardgrass (Echinochloa crus-galli); assay: Test B pre-/postemergence plant response
Procedure, shortened: (§3)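 Greenhouse pots, loam/sand soil; compound formulated with surfactant in non-phytotoxic solvent. Preemergence soil spray and postemergence spray at 1–2 leaf stage run simultaneously. Visual injury, 0–100, about 10 days post-treatment.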

corn (Zea mays) = assay: Test B pre-/postemergence plant response
Procedure, shortened: as §3

[12] = system: pigweed (Amaranthus retroflexus); assay: Test B pre-/postemergence plant response
Procedure, shortened: as §3

[13] = system: wheat (Triticum aestivum); assay: Test B pre-/postemergence plant response
Procedure, shortened: as §3

[14] = system: giant foxtail (Setaria faberii); assay: Test B pre-/postemergence plant response
Procedure, shortened: as §3

[15] = Postemergence, 31 g ai/ha, scale 0 to 100 (0 no effect, 100 complete control)
[16] = Postemergence, 62 g ai/ha, scale 0 to 100, 0 no effect, 100 complete control
[17] = Postemergence, 125 g ai/ha, scale 0 to 100, 0 no effect, 100 complete control
[18] = Preemergence, 16 g ai/ha, scale 0 to 100 (0 no effect, 100 complete control)
[19] = Preemergence, 31 g ai/ha, scale 0 to 100 (0 no effect, 100 complete control)
[20] = Preemergence, 62 g ai/ha, scale 0 to 100 (0 no effect, 100 complete control)
[21] = 125 g ai/ha, postemergence, 0 to 100 scale, 0 no effect, 100 complete control
[22] = Postemergence, 500 g ai/ha, 0 to 100 scale (0 no effect, 100 complete control)
[23] = Preemergence, 125 g ai/ha, 0 to 100 scale (0 no effect, 100 complete control)
[24] = Preemergence, 500 g ai/ha, 0 to 100 scale where 0 is no effect and 100 is complete control

## N#Cc1cccc(Oc2ncc(Cl)cn2)c1-c1cc(C(F)F)on1 [Compound 180]
[1]; Postemergence, 16 g ai/ha
  Plant response rating (scale 0 to 100), Johnsongrass: 0
[1]; [15]
  Johnsongrass plant response rating: 0
[1]; [16]
  Plant response rating, Johnsongrass: 5
[1]; [17]
  Plant response rating, Johnsongrass: 5
[1]; Preemergence, 125 g ai/ha
  Plant response rating (scale 0 to 100), Johnsongrass: 90
[1]; [18]
  Plant response rating, Johnsongrass: 0
[1]; [19]
  Plant response rating, Johnsongrass: 10
[1]; [20]
  Plant response rating, Johnsongrass: 60
[2]; Postemergence, 16 g ai/ha
  Plant response rating (scale 0 to 100), Crabgrass, Large: 5
[2]; [15]
  Crabgrass, Large plant response rating: 5
[2]; [16]
  Plant response rating, Crabgrass, Large: 5
[2]; [17]
  Plant response rating, Crabgrass, Large: 5
[2]; Preemergence, 125 g ai/ha
  Plant response rating (scale 0 to 100), Crabgrass, Large: 100
[2]; [18]
  Plant response rating, Crabgrass, Large: 30
[2]; [19]
  Plant response rating, Crabgrass, Large: 75
[2]; [20]
  Plant response rating, Crabgrass, Large: 100
[3]; Postemergence, 16 g ai/ha
  Plant response rating (scale 0 to 100), Galium: 65
[3]; [15]
  Galium plant response rating: 75
[3]; [16]
  Plant response rating, Galium: 100
[3]; [17]
  Plant response rating, Galium: 100
[3]; Preemergence, 125 g ai/ha
  Plant response rating (scale 0 to 100), Galium: 98
[3]; [18]
  Plant response rating, Galium: 75
[3]; [19]
  Plant response rating, Galium: 80
[3]; [20]
  Plant response rating, Galium: 98
[4]; Postemergence, 16 g ai/ha
  Plant response rating (scale 0 to 100), Blackgrass: 0
[4]; [15]
  Blackgrass plant response rating: 0
[4]; [16]
  Plant response rating, Blackgrass: 5
[4]; [17]
  Plant response rating, Blackgrass: 5
[4]; Preemergence, 125 g ai/ha
  Plant response rating (scale 0 to 100), Blackgrass: 70
[4]; [18]
  Plant response rating, Blackgrass: 0
[4]; [19]
  Plant response rating, Blackgrass: 0
[4]; [20]
  Plant response rating, Blackgrass: 60
[5]; Postemergence, 16 g ai/ha
  Plant response rating (scale 0 to 100), Lambsquarters: 70
[5]; [15]
  Lambsquarters plant response rating: 80
[5]; [16]
  Lambsquarters plant response rating: 98
[5]; [17]
  Plant response rating, Lambsquarters: 98
[5]; Preemergence, 125 g ai/ha
  Plant response rating (scale 0 to 100), Lambsquarters: 90
[5]; [18]
  Plant response rating, Lambsquarters: 95
[5]; [19]
  Plant response rating, Lambsquarters: 100
[5]; [20]
  Plant response rating, Lambsquarters: 100
[6]; Postemergence, 16 g ai/ha
  Plant response rating (scale 0 to 100), Velvetleaf: 45
[6]; [15]
  Velvetleaf plant response rating: 40
[6]; [16]
  Velvetleaf plant response rating: 35
[6]; [17]
  Plant response rating, Velvetleaf: 55
[6]; Preemergence, 125 g ai/ha
  Plant response rating (scale 0 to 100), Velvetleaf: 100
[6]; [18]
  Plant response rating, Velvetleaf: 75
[6]; [19]
  Plant response rating, Velvetleaf: 85
[6]; [20]
  Plant response rating, Velvetleaf: 90
[7]; Postemergence, 16 g ai/ha
  Plant response rating (scale 0 to 100), Wheat: 5
[7]; [15]
  Wheat plant response rating: 5
[7]; [16]
  Wheat plant response rating: 15
[7]; [17]
  Plant response rating, Wheat: 30
[7]; Preemergence, 125 g ai/ha
  Plant response rating (scale 0 to 100), Wheat: 30
[7]; [18]
  Plant response rating, Wheat: 0
[7]; [19]
  Plant response rating, Wheat: 0
[7]; [20]
  Plant response rating, Wheat: 0
[8]
  Sedge, Umbrella plant response rating: 80
[9]
  Barnyardgrass plant response rating: 0
[10]
  Ducksalad plant response rating: 90
Rice (Oryza sativa)
  Rice plant response rating: 0
[11]; [21]
  Plant response rating, Barnyardgrass: 50
[11]; [22]
  Plant response rating, Barnyardgrass: 90
[11]; [23]
  Barnyardgrass plant response rating: 20
[11]; [24]
  Plant response rating, Barnyardgrass: 80
Corn (Zea mays); [21]
  Plant response rating, Corn: 20
Corn (Zea mays); [22]
  Plant response rating, Corn: 70
[12]; [21]
  Plant response rating, Pigweed: 100
[12]; [22]
  Plant response rating, Pigweed: 100
[12]; [23]
  Pigweed plant response rating: 100
[12]; [24]
  Plant response rating, Pigweed: 100
[13]; [21]
  Plant response rating, Wheat: 60
[13]; [22]
  Plant response rating, Wheat: 90
[14]; [21]
  Plant response rating, Foxtail, Giant: 80
[14]; [22]
  Plant response rating, Foxtail, Giant: 100
[14]; [23]
  Foxtail, Giant plant response rating: 90
[14]; [24]
  Plant response rating, Foxtail, Giant: 100
